In patent US6903089B1, “Lactam-substituted pyrazolopyridine derivatives” (Bayer Aktiengesellschaft, priority 2000, dated 2005):

test system: rabbit aorta rings; test: Vasorelaxant effect in vitro (phenylephrine-contracted rabbit aorta rings); settings: Oryctolagus cuniculus, contraction generated by phenylephrine, concentration reducing height of control contraction by 50%
Procedure: Rabbits are stunned by a blow to the back of the neck and are exsanguinated. The aorta is removed, freed of adherent tissue, divided into rings 1.5 mm wide and put singly under tension in 5 ml organ baths containing carbogen-gassed Krebs-Henseleit solution at 37° C. with the following composition (mM): NaCl: 119; KCl: 4.8; CaCl2×2H2O: 1; MgSO4×7 H2O: 1.4; KH2PO4: 1.2; NaHCO3: 25; glucose: 10. The force of contraction is detected with Statham UC2 cells, amplified and digitized via A/D converters (DAS-1802 HC, Keithley Instruments Munich) and recorded in parallel on chart recorders. A contraction is generated by adding phenylephrine to the bath cumulatively in increasing concentration. After several control cycles, the substance to be investigated is investigated in each further run in increing dosage in each case, and the height of the contraction is compared with the height of the contraction reached in the last preceding run. The concentration necessary to reduce the height of the control value by 50% (IC50) is calculated from this. The standard application volume is 5 μl, and the DMSO content in the bath solution corresponds to 0.1%.

| IC50 [nM] | SMILES |
| --- | --- |
| 700 | CC1(C)CN(c2cnc(-c3nn(Cc4ccccc4F)c4ncccc34)nc2N)C(=O)C1(C)C [Example 9] |
| 1230 | Nc1nc(-c2nn(Cc3ccccc3F)c3ncccc23)ncc1N1CCSC1=O [Example 16] |
| 690 | CC1C(=O)N(c2cnc(-c3nn(Cc4ccccc4F)c4ncccc34)nc2N)C(=O)C1(C)C (centres unmarked) [Example 13] |
| 410 | CC12CC1C(=O)N(c1cnc(-c3nn(Cc4ccccc4F)c4ncccc34)nc1N)C2=O (centres unmarked) [Example 19] |
| 1200 | Nc1nc(-c2nn(Cc3ccccc3F)c3ncccc23)ncc1N1CCOC1=O [Example 15] |
| 600 | Nc1nc(-c2nn(Cc3ccccc3F)c3ncccc23)ncc1N1C(=O)c2ccccc2C1=O [Example 22, 2-{4-Amino-2-[1-(2-fluorobenzyl)-1H-pyrazolo[3,4-b]pyridin-3-yl]-5-pyrimidinyl}-1H-isoindole-1,3(2H)-dione] |
| 1050 | Nc1nc(-c2nn(Cc3ccccc3F)c3ncccc23)ncc1N1CCCCCC1=O [Example 5] |
| 250 | CC(=O)Nc1nc(-c2nn(Cc3ccccc3F)c3ncccc23)ncc1N1CCOC1=O [Example 21, N-[2-[1-(2-Fluorebenzyl)-1H-pyrazolo[34-b]pyridin-3-yl]-5-(2-oxo-1,3-oxazolidin-3-yl)-4-pyrimidinyl]acetamide] |
| 420 | CC1(C)OC(=O)N(c2cnc(-c3nn(Cc4ccccc4F)c4ncccc34)nc2N)C1=O [Example 14, 3-{4-Amino-2-[1-(2-fluorobenzyl)-1H-pyrazolo[3,4-b]pyridin-3-yl]-5-pyrimidinyl}-5,5-dimethyl-1,3-oxazolidine-2,4-dione] |
| 1100 | Nc1nc(-c2nn(Cc3ccccc3F)c3ncccc23)ncc1N1CCCC1=O [Example 2] |
| 1990 | Nc1nc(-c2nn(Cc3ccccc3F)c3ncccc23)ncc1N1CCCCC1=O [Example 3] |
